According to article PMC12058896, “Potent antimicrobial activity of hydrogel loaded with the antimicrobial peptide, D-Bac8c^2,5 Leu, against monospecies and polymicrobial biofilms of Staphylococcus aureus and Pseudomonas aeruginosa” (Frontiers in Microbiology, 2025):
In brackets after ≈: the same amount, converted by molar mass. Where two headings read alike, the source gives them in different places. Blank lines part the entries; values can stand above or below the molecule they belong to. Residues, ends and D or L forms follow the SMILES beside them.

Columns and labels:
[1] = test system: PAO1; experiment: microbe, parasite or virus in culture; format: cell-based, Pseudomonas aeruginosa
Description: (§1) Strains used in the study were isolates of methicillin-resistant Staphylococcus aureus (MRSA); USA300 LAC, BH1CC ([O’Neill et al., 2007]), methicillin-sensitive S. aureus (MSSA); SH1000 ([Horsburgh et al., 2002]) and BH48 ([O’Neill et al., 2007]); and Pseudomonas aeruginosa PAO1 (ATCC […]). Clinical isolates were obtained from a previous collection of isolates of infected wounds. Bacteria were grown aerobically at 37°C with shaking at 200 rpm in Brain Heart Infusion (BHI, Oxoid, Ireland). Selective media, Mannitol Salt Agar (SLS, Ireland) and MacConkey agar (SLS, Ireland), for re-isolation of bacterial strains from mixed species biofilms were used. Bolton Broth (Fannin, Ireland) supplemented with 50% bovine heparin plasma (TebuBio, UK), and 5% laked horse blood (Sigma-Aldrich, Ireland) was used to mimic in vivo conditions for static antibiofilm testing. For dynamic biofilm growth Simulated Wound Fluid (SWF) prepared as described previously with slight modification, 3% v/v fetal bovine serum in maximum recovery diluent (Merck, Ireland) was used ([Barbour et al., 2016]).
(§2) Minimum inhibitory concentration (MIC) was determined aerobically using the broth microdilution assay as recommended by the Clinical and Laboratory Standards Institute (CLSI) ([CLSI, 2018]). Briefly, 2-fold serial dilutions of the antimicrobial peptides of interest and conventional antibiotics were prepared in Mueller-Hinton broth (MHB) (Merck, Ireland) in a 96-well round bottom polypropylene plate (ThermoFisher, Ireland). Diluted bacterial suspensions in sterile PBS (Sigma, Ireland) were added to each well resulting in a final cell density of approximately 10^5 colony forming units (CFU)/mL. Microplates were incubated statically for 18 h at 37°C. In each assay, inoculated medium without antimicrobials and uninoculated medium served as growth and sterility controls, respectively. Conventional antibiotics, gentamicin (Merck, Ireland) and mupirocin (SLS, UK), were tested as comparator antimicrobials. The MIC value was defined as the lowest antimicrobial concentration showing no visible growth relative to positive (no antimicrobial agent) and negative controls (BHI alone). Experiments were conducted in triplicate, and independent replicates were performed three times to yield n = 3.

[2] = test system: SH1000; experiment: microbe, parasite or virus in culture; format: cell-based, Staphylococcus aureus
Description: as §1, §2

[3] = test system: USA300; experiment: microbe, parasite or virus in culture; format: cell-based, Staphylococcus aureus
Description: as §1, §2

[4] = test system: BH48; experiment: microbe, parasite or virus in culture; format: cell-based, Staphylococcus aureus; conditions: 18 h
Description: as §1, §2

[5] = test system: BH1CC; experiment: microbe, parasite or virus in culture; format: cell-based, Staphylococcus aureus; conditions: 18 h
Description: as §1, §2

[6] = test system: HUVEC; experiment: MTT cell viability; format: cell-based, human; conditions: 24 h, 37°C, 5% CO2, ethanol control
[7] = test system: THP-1; format: cell-based, human; conditions: THP-1; 24 h, 37°C, 5% CO2; ethanol control
Description: Sigma-Aldrich, Ireland). […] At 90% confluence, cells were centrifuged and diluted to a 1:5 ratio with complete RPMI. THP-1 cells were seeded in a 96 well plate at a density of 1 × 10^5 cells/mL with increasing concentrations of D-Bac8c^2,5 Leu. Cells were incubated for 24 h at 37°C with 5% CO2, 95% humidity. […] The absorbance was measured at 595 nm in a microplate spectrophotometer. Cell viability was calculated as a percentage of a control treated with PBS. Two technical replicates were performed each day on three independent days.

[8] = test system: HaCaT; experiment: MTT cell viability; format: cell-based, human; conditions: 24 h, 37°C, 5% CO2, ethanol control
[9] = test system: S. aureus strains; format: cell-based, Staphylococcus aureus; conditions: 2 MRSA and 2 MSSA strains, summed up in text
Description: as §1
Minimum inhibitory concentration (MIC) was determined aerobically using the broth microdilution assay as recommended by the Clinical and Laboratory Standards Institute (CLSI) ([CLSI, 2018]). […]

[10] = Pseudomonas aeruginosa, PAO1, MHB, about 10^5 CFU/mL, 18 h, 37°C, n = 3, read-out: MIC
[11] = Staphylococcus aureus, SH1000 (MSSA), MHB, about 10^5 CFU/mL, 18 h, 37°C, n = 3, read-out: MIC
[12] = Staphylococcus aureus, USA300 (MRSA), MHB, about 10^5 CFU/mL, 18 h, 37°C, n = 3, read-out: MIC
[13] = Staphylococcus aureus, BH48 (MSSA), MHB, about 10^5 CFU/mL, 37°C, n = 3, read-out: MIC
[14] = Staphylococcus aureus, BH1CC (MRSA), MHB, about 10^5 CFU/mL, 37°C, n = 3, read-out: MIC
[15] = PAO1, MHB, about 10^5 CFU/mL, 18 h, 37°C, n = 3
[16] = SH1000 (MSSA), MHB, about 10^5 CFU/mL, 18 h, 37°C, n = 3
[17] = USA300 (MRSA), MHB, about 10^5 CFU/mL, 18 h, 37°C, n = 3
[18] = BH48 (MSSA), MHB, about 10^5 CFU/mL, 37°C, n = 3
[19] = BH1CC (MRSA), MHB, about 10^5 CFU/mL, 37°C, n = 3

MIC ([1]; PAO1, 18 h): 64 µg/mL (≈ 52.1 µM)
MIC ([2]; SH1000, 18 h): 128 µg/mL (≈ 104 µM)
MIC ([3]; USA300, 18 h): 128 µg/mL (≈ 104 µM)
MIC [4]: 128 µg/mL (≈ 104 µM)
MIC [5]: 128 µg/mL (≈ 104 µM)
Structure (SMILES): CC[C@H](C)[C@H](NC(=O)[C@H](CCCNC(=N)N)NC(=O)[C@H](Cc1ccccc1)NC(=O)[C@H](CCCNC(=N)N)NC(=O)[C@@H](N)CCCCN)C(=O)N[C@@H](CCCNC(=N)N)C(=O)N[C@H](C(=O)N[C@@H](CCCNC(=N)N)C(=O)N[C@H](C(N)=O)C(C)C)C(C)C [1,037] (H-KRFRIRVRV-NH2)

MIC ([1]; PAO1, 18 h): >400 µg/mL
MIC ([2]; SH1000, 18 h): >400 µg/mL
MIC ([3]; USA300, 18 h): >400 µg/mL
MIC [4]: >400 µg/mL
MIC [5]: >400 µg/mL
Structure (SMILES): CC(C)[C@H](NC(=O)[C@H](CCCCN)NC(=O)[C@H](CCCCN)NC(=O)[C@@H]1CCCN1C(=O)[C@H](CCCCN)NC(=O)[C@@H](NC(=O)[C@@H]1CCCN1C(=O)[C@H](CCCCN)NC(=O)[C@@H](NC(=O)[C@H](CCCCN)NC(=O)[C@H](CCCCN)NC(=O)[C@H](CO)NC(=O)[C@@H]1CCCN1)[C@@H](C)O)C(C)C)C(=O)N[C@@H](C)C(N)=O [DRGN-1] (H-PSKKTKPVKPKKVA-NH2)

IC50 (50% cell viability), MTT [7]: 1%
Structure (SMILES): CCO [Ethanol, reference compound]
IC50 (50% cell viability), MTT [6]: 0.4%
IC50 (50% cell viability), MTT [8]: 1.2%

MIC [1, 10]: > 512 µg/mL
MIC [2, 11]: 0.06 µg/mL (≈ 0.116 µM)
MIC [3, 12]: 0.03 µg/mL (≈ 0.0581 µM)
MIC [4, 13]: 4 µg/mL (≈ 7.74 µM)
MIC [5, 14]: 2 µg/mL (≈ 3.87 µM)
Structure (SMILES): CC(=O)O[C@H]1C[C@@]2(C)[C@@H](C[C@@H](O)[C@H]3[C@@]4(C)CC[C@@H](O)[C@@H](C)[C@@H]4CC[C@@]32C)/C1=C(\CCC=C(C)C)C(=O)O [Fusidic acid]

MIC [1, 10]: 1 µg/mL (≈ 2.09 µM)
MIC [2, 11]: 0.25 µg/mL (≈ 0.523 µM)
MIC [3, 12]: 0.5 µg/mL (≈ 1.05 µM)
MIC [4, 13]: 0.25 µg/mL (≈ 0.523 µM)
MIC [5, 14]: 32 µg/mL (≈ 67 µM)
Structure (SMILES): CNC(C)C1CCC(N)C(OC2C(N)CC(N)C(OC3OCC(C)(O)C(NC)C3O)C2O)O1 (stereo not drawn) [Gentamicin, gentamicin]

Structure (SMILES): CC[C@H](C)[C@H](NC(=O)[C@H](CCCNC(=N)N)NC(=O)[C@@H](NC(=O)[C@H](C)NC(=O)[C@@H](NC(=O)[C@@H](NC(=O)[C@H](CC(C)C)NC(=O)[C@H](CCCNC(=N)N)NC(=O)[C@@H](N)C(C)C)[C@@H](C)CC)C(C)C)C(C)C)C(=O)N[C@@H](Cc1c[nH]c2ccccc12)C(=O)N[C@@H](CCCNC(=N)N)C(=O)N[C@@H](CCCNC(=N)N)C(N)=O [IDR-1018] (H-VRLIVAVRIWRR-NH2)
MIC [1, 15]: 64 µg/mL (≈ 41.7 µM)
MIC [2, 16]: 64 µg/mL (≈ 41.7 µM)
MIC [3, 17]: 64 µg/mL (≈ 41.7 µM)
MIC [4, 18]: 128 µg/mL (≈ 83.3 µM)
MIC [5, 19]: 128 µg/mL (≈ 83.3 µM)

MIC [1, 10]: > 2050 µg/mL
MIC [2, 11]: 0.03 µg/mL (≈ 0.0599 µM)
MIC [3, 12]: 0.06 µg/mL (≈ 0.12 µM)
MIC [4, 13]: 0.03 µg/mL (≈ 0.0599 µM)
MIC [5, 14]: 2 µg/mL (≈ 3.99 µM)
Structure (SMILES): C/C(=C\C(=O)OCCCCCCCCC(=O)O)C[C@@H]1OC[C@H](C[C@@H]2O[C@H]2[C@@H](C)[C@H](C)O)[C@@H](O)[C@H]1O [Mupirocin, mupirocin]

Structure (SMILES): CC[C@H](C)[C@H](NC(=O)CNC(=O)[C@H](CCCCN)NC(=O)[C@H](Cc1ccc(O)cc1)NC(=O)[C@H](CS)NC(=O)[C@@H](NC(=O)[C@H](CCCCN)NC(=O)[C@H](Cc1c[nH]c2ccccc12)NC(=O)[C@H](CS)NC(=O)[C@H](Cc1ccccc1)NC(=O)[C@@H](N)CCCNC(=N)N)C(C)C)C(=O)N[C@@H](CS)C(=O)N[C@@H](Cc1ccccc1)C(=O)N[C@@H](CCCCN)C(=O)N[C@@H](CCCCN)C(=O)N[C@@H](CS)C(=O)N[C@@H](CCCCN)C(N)=O [RP557] (H-RFCWKVCYKGICFKKCK-NH2; N-terminus assumed)
MIC [1, 15]: 8 µg/mL (≈ 3.74 µM)
MIC [2, 16]: 16 µg/mL (≈ 7.48 µM)
MIC [3, 17]: 16 µg/mL (≈ 7.48 µM)
MIC [4, 18]: 16 µg/mL (≈ 7.48 µM)
MIC [5, 19]: 16 µg/mL (≈ 7.48 µM)
MIC against S. aureus strains [9]: 16 µg/mL (≈ 7.48 µM)
